Experimental data: US10995091B2 (Proximagen, LLC, priority 2010, dated 2021)
Structures can show the parent of a compound that is named as a salt.

Target: T1, Human CXCR4 transfected HEK293 cells (Homo sapiens, UniProt P61073)
T1 construct: expressed in transfected cells; host or cells: HEK293
Assay: CXCR4 functional calcium assay (calcium flux FLIPR, antagonism of SDF1 response)
Assay type: cell-based
Conditions: CXCR4 functional activity, antagonism of SDF1 (EC50 concentration), read-out: CXCR4 fKi
How it was run: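 Dose-dependent antagonism of the SDF1 response was read by FLIPR as Fluo-4 calcium signal (2 μM dye) in CXCR4-expressing human HEK293 cells, in HBSS with probenecid, BSA and HEPES at pH 7.4 and 37° C. Test compound was given before an EC50-level SDF1 challenge. Curves were then fitted.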

T1 sequence (P61073 whole entry): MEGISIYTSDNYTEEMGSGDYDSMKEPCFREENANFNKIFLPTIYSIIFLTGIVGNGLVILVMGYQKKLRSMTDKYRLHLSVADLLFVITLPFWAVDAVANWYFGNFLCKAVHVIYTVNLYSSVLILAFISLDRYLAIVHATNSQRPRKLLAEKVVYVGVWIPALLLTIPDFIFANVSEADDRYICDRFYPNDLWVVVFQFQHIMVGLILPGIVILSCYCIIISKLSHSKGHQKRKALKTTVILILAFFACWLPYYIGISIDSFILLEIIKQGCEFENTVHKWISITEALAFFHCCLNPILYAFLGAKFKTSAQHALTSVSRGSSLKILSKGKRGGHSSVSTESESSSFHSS

**Q.** How did the Ki turn out when [2H]C1([2H])CCN(C2CCN(Cc3ccc(F)cc3Cl)CC2)CCN1c1cccc(C(=O)Nc2ccncc2)n1 [Example 205, 6-(4-{1-[(2-Chloro-4-fluorophenyl)methyl]piperidin-4-yl}-7,7-dihydrogenio-1,4-diazepan-1-yl)-N-(pyridin-4-yl)pyridine-2-carboxamide] was run?
**A.** < 20 nM

**Q.** With CC(C)N1CCC(N2CCCN(c3cccc(C(=O)Nc4nccs4)n3)CC2)CC1 [Example 31, 6-{4-[1-(Propan-2-yl)piperidin-4-yl]-1,4-diazepan-1-yl}-N-(1,3-thiazol-2-yl)pyridine-2-carboxamide] as the molecule, how does the Ki read?
**A.** < 20 nM

**Q.** Which Ki does the source give for CC(C)N1CCC(N2CCCN(c3cccc(C(=O)NCC4CCOCC4)n3)CC2)CC1 [Example 1, N-(Oxan-4-ylmethyl)-6-{4-[1-(propan-2-yl)piperidin-4-yl]-1,4-diazepan-1-yl}pyridine-2-carboxamide] here?
**A.** 100 to 500 nM

**Q.** For O=C(Nc1ccncc1)c1cccc(N2CCC3CCCC(C2)N3C2CCN(Cc3ccccc3Cl)CC2)n1 (stereo not drawn) [Example 218, 6-(10-{1-[(2-Chlorophenyl)methyl]piperidin-4-yl}-3,10-diazabicyclo[4.3.1]decan-3-yl)-N-(pyridin-4-yl)pyridine-2-carboxamide], which Ki is on record?
**A.** 100 to 500 nM

**Q.** For CCC(CC)N1CCC(N2CCCN(c3cccc(C(=O)NCC4CC4)n3)CC2)CC1 [Example 66, N-(Cyclopropylmethyl)-6-{4-[1-(pentan-3-yl)piperidin-4-yl]-1,4-diazepan-1-yl}pyridine-2-carboxamide], which Ki is on record?
**A.** 20 to 100 nM

**Q.** Which Ki does the source give for CC(C)N1CCCC(N2CCN(c3cccc(C(=O)Nc4ccncc4)n3)CC2)CC1 (stereo not drawn) [Example 242, 6-{4-[1-(Propan-2-yl)azepan-4-yl]piperazin-1-yl}-N-(pyridin-4-yl)pyridine-2-carboxamide] here?
**A.** 100 to 500 nM

**Q.** With CC(C)N1CCC(N2CCCN(c3cccc(-c4nc5ccc(C(F)(F)F)cc5[nH]4)n3)CC2)CC1 [Example 144, 2-(6-{4-[1-(Propan-2-yl)piperidin-4-yl]-1,4-diazepan-1-yl}pyridine-2-yl)-6-(trifluoromethyl)-1H-1,3-benzodiazole] as the molecule, how does the Ki read?
**A.** 100 to 500 nM

**Q.** With [2H]C1([2H])CCN(c2cccc(C(=O)Nc3ccncc3)n2)CCN1C1CCN([C@H](C)CC)CC1 [Example 188, 6-(4-{1-[(2R)-Butan-2-yl]piperidin-4-yl}-5,5-dihydrogenio-1,4-diazepan-1-yl)-N-(pyridin-4-yl)pyridine-2-carboxamide] as the molecule, how does the Ki read?
**A.** < 20 nM

**Q.** For CC(C)N1CCC(N2CCCN(c3cccc(C(=O)NCC(F)(F)F)n3)CC2)CC1 [Example 10, 6-{4-[1-(Propan-2-yl)piperidin-4-yl]-1,4-diazepan-1-yl}-N-(2,2,2-trifluoroethyl)pyridine-2-carboxamide], which Ki is on record?
**A.** 100 to 500 nM

**Q.** For CC(C)N1CCC(N2CCCN(c3cccc(C(=O)NCc4ccco4)n3)CC2)CC1 [Example 40, N-(Furan-2-ylmethyl)-6-{4-[1-(propan-2-yl)piperidin-4-yl]-1,4-diazepan-1-yl}pyridine-2-carboxamide], which Ki is on record?
**A.** < 20 nM

**Q.** Which Ki does the source give for Cc1cn[nH]c1-c1cccc(N2CCCN(C3CCN(C(C)C)CC3)CC2)n1 [Example 173, 1-[6-(4-Methyl-1H-pyrazol-3-yl)pyridin-2-yl]-4-[1-(propan-2-yl)piperidin-4-yl]-1,4-diazepane Trihydrochloride] here?
**A.** 500 to 1000 nM

**Q.** For [2H]C1([2H])CCN(c2cccc(C(=O)Nc3ccncc3)n2)CCN1C1CCN([C@@H](C)C(F)(F)F)CC1 [Example 190, 6-(5,5-Dihydrogenio-4-{1-[(2S)-1,1,1-trifluoropropan-2-yl]piperidin-4-yl}-1,4-diazepan-1-yl)-N-(pyridin-4-yl)pyridine-2-carboxamide], which Ki is on record?
**A.** < 20 nM

**Q.** For c1ccc2c(c1)CCC2N1CCC(N2CCCN(c3nccs3)CC2)CC1 (stereo not drawn) [Example 126, 1-[1-(2,3-Dihydro-1H-inden-1-yl)piperidin-4-yl]-4-(1,3-thiazol-2-yl)-1,4-diazepane], which Ki is on record?
**A.** 500 to 1000 nM

**Q.** How did the Ki turn out when O=C(Nc1ccncc1)c1cccc(N2CCCN(Cc3ccc(F)cc3Cl)CC2)n1 [Example 251, 6-{4-[(2-Chloro-4-fluorophenyl)methyl]-1,4-diazepan-1-yl}-N-(pyridin-4-yl)pyridine-2-carboxamide] was run?
**A.** 100 to 500 nM

**Q.** How did the Ki turn out when CC(C)N1CCC(N2CCCN(c3cccc(C(=O)NCc4cccnc4)n3)CC2)CC1 [Example 34, 6-{4-[1-(Propan-2-yl)piperidin-4-yl]-1,4-diazepan-1-yl}-N-(pyridin-3-ylmethyl)pyridine-2-carboxamide] was run?
**A.** < 20 nM

**Q.** For O=C(NCC1CC1)c1ccnc(N2CCCN(C3CCN(Cc4ccccc4Cl)CC3)CC2)c1 [Example 269, 2-(4-{1-[(2-chlorophenyl)methyl]piperidin-4-yl}-1,4-diazepan-1-yl)-N-(cyclopropylmethyl)pyridine-4-carboxamide], which Ki is on record?
**A.** 100 to 500 nM

**Q.** How did the Ki turn out when CC(C)N1CCC(N2CCCN(c3cccc(C(=O)NCc4cocn4)n3)CC2)CC1 [Example 41, N-(1,3-Oxazol-4-ylmethyl)-6-{4-[1-(propan-2-yl)piperidin-4-yl]-1,4-diazepan-1-yl}pyridine-2-carboxamide] was run?
**A.** 20 to 100 nM

**Q.** Cc1cc(NC(=O)c2cccc(N3CCCN(C4CCN(C(C)C)CC4)CC3)n2)ccn1 [Example 86, N-(2-Methylpyridin-4-yl)-6-{4-[1-(propan-2-yl)piperidin-4-yl]-1,4-diazepan-1-yl}pyridine-2-carboxamide] was tested. Which Ki did it give?
**A.** < 20 nM

**Q.** For c1cc(NCCNCC2CCN(C3CCCC3)C2)nc(-c2ncc(C3CC3)[nH]2)c1 (stereo not drawn) [Example 229, [(1-Cyclopentylpyrrolidin-3-yl)methyl](2-{[6-(5-cyclopropyl-1H-imidazol-2-yl)pyridin-2-yl]amino}ethyl)amine], which Ki is on record?
**A.** 100 to 500 nM

**Q.** For CC(C)N1CCC(N2CCCN(c3cccc(C(=O)NCc4cncs4)n3)CC2)CC1 [Example 43, 6-{4-[1-(Propan-2-yl)piperidin-4-yl]-1,4-diazepan-1-yl}-N-(1,3-thiazol-5-ylmethyl)pyridine-2-carboxamide], which Ki is on record?
**A.** 20 to 100 nM

**Q.** CCc1cnc(-c2cccc(N3CCCN(C4CCN([C@H](C)CC)CC4)CC3)n2)[nH]1 [Example 116, 1-{1-[(2R)-Butan-2-yl]piperidin-4-yl}-4-[6-(4-ethyl-1H-imidazol-2-yl)pyridine-2-yl]-1,4-diazepane] was tested. Which Ki did it give?
**A.** < 20 nM

**Q.** CCCC(=O)c1cccc(N2CCCN(C3CCN(C(C)C)CC3)CC2)n1 [Example 219, 1-(6-{4-[1-(Propan-2-yl)piperidin-4-yl]-1,4-diazepan-1-yl}pyridin-2-yl)butan-1-one] was tested. Which Ki did it give?
**A.** 100 to 500 nM

**Q.** For CC(C)N1CCC(N2CCCN(c3cccc(C(=O)Nc4cncs4)n3)CC2)CC1 [Example 32, 6-{4-[1-(Propan-2-yl)piperidin-4-yl]-1,4-diazepan-1-yl}-N-(1,3-thiazol-5-yl)pyridine-2-carboxamide], which Ki is on record?
**A.** < 20 nM

**Q.** For O=C(Nc1ccncc1)c1cccc(N2CC[C@@H](NCC3CCN(C4CCCC4)CC3)C2)n1 [Example 228, 6-[(3R)-3-{[(1-Cyclopentylpiperidin-4-yl)methyl]amino}pyrrolidin-1-yl]-N-(pyridin-4-yl)pyridine-2-carboxamide], which Ki is on record?
**A.** < 20 nM

**Q.** CC(C)N1CCC(N2CC3CCC2CN(c2cccc(C(=O)Nc4ccncc4)n2)C3)C(F)C1 (stereo not drawn) [Example 198] was tested. Which Ki did it give?
**A.** 100 to 500 nM

**Q.** How did the Ki turn out when CCNC(=O)c1cccc(N2CCCN(C3CCN(Cc4ccccc4Cl)CC3)CC2)n1 [Example 137, 6-(4-{1-[(2-Chlorophenyl)methyl]piperidin-4-yl}-1,4-diazepan-1-yl)-N-ethylpyridine-2-carboxamide] was run?
**A.** 20 to 100 nM

**Q.** With CC(C)(C)c1cnc(-c2cccc(N3CCCN(C4CCN(C(C)(C)C)CC4)CC3)n2)[nH]1 [Example 117, 1-[6-(4-tert-Butyl-1H-imidazol-2-yl)pyridine-2-yl]-4-(1-tert-butylpiperidin-4-yl)-1,4-diazepane] as the molecule, how does the Ki read?
**A.** 100 to 500 nM

**Q.** For Cc1cccc(N2CCCN(C3CCN(Cc4ccccc4Cl)CC3)CC2)n1 [Example 262, 1-{1-[(2-Chlorophenyl)methyl]piperidin-4-yl}-4-(6-methylpyridin-2-yl)-1,4-diazepane], which Ki is on record?
**A.** 500 to 1000 nM

**Q.** Which Ki does the source give for [2H]C1([2H])CCN(C2CCN(C(C)C)CC2)CCN1c1cccc(C(=O)Nc2ccncc2)n1 [Example 175, 6-{7,7-Dihydrogenio-4-[1-(propan-2-yl)piperidin-4-yl]-1,4-diazepan-1-yl}-N-(pyridine-4-yl)pyridine-2-carboxamide] here?
**A.** < 20 nM

**Q.** CC(C)N1CCC(N2CCCN(c3cccc(C(=O)NCC4CC4)n3)CC2C)CC1 (stereo not drawn) [Example 194, N-(Cyclopropylmethyl)-6-{3-methyl-4-[1-(propan-2-yl)piperidin-4-yl]-1,4-diazepan-1-yl}pyridine-2-carboxamide] was tested. Which Ki did it give?
**A.** 20 to 100 nM

**Q.** CC(C)N1CCC(N2CCCN(c3cccc(C(=O)NCC4CC4)n3)CC2)CC1 [Example 63, N-(Cyclopropylmethyl)-6-{4-[1-(propan-2-yl)piperidin-4-yl]-1,4-diazepan-1-yl}pyridine-2-carboxamide] was tested. Which Ki did it give?
**A.** < 20 nM

**Q.** O=C(NCC1CC1)c1cccc(N2CCCN(C3CCN(Cc4ccc(F)cc4Cl)CC3)CC2)n1 [Example 135] was tested. Which Ki did it give?
**A.** < 20 nM

**Q.** Which Ki does the source give for [2H]C1([2H])CCN(C2CCN([C@@H](C)C(F)(F)F)CC2)CCN1c1cccc(C(=O)Nc2ccncc2)n1 [Example 178, 6-(7,7-Dihydrogenio-4-{1-[(2S)-1,1,1-trifluoropropan-2-yl]piperidin-4-yl}-1,4-diazepan-1-yl)-N-(pyridine-4-yl)pyridine-2-carboxamide] here?
**A.** 20 to 100 nM

**Q.** Cc1ccc(NC(=O)c2cccc(N3CCCN(C4CCN(C(C)C)CC4)CC3)n2)cc1 [Example 27, N-(4-Methylphenyl)-6-{4-[1-(propan-2-yl)piperidin-4-yl]-1,4-diazepan-1-yl}pyridine-2-carboxamide] was tested. Which Ki did it give?
**A.** 20 to 100 nM

**Q.** How did the Ki turn out when Cc1nc(-c2cccc(N3CCCN(C4CCN(C(C)C)CC4)CC3)n2)[nH]c1C [Example 118, 1-[6-(4,5-Dimethyl-1H-imidazol-2-yl)pyridine-2-yl]-4-[1-(propan-2-yl)piperidin-4-yl]-1,4-diazepane] was run?
**A.** 20 to 100 nM

**Q.** With CC(C)N1CCC(N2CCCN(c3cccc(-c4noc(-c5ccncc5)n4)n3)CC2)CC1 [Example 167, 1-[1-(Propan-2-yl)piperidin-4-yl]-4-{6-[5-(pyridine-4-yl)-1,2,4-oxadiazol-3-yl]pyridine-2-yl}-1,4-diazepane tetrahydrochloride] as the molecule, how does the Ki read?
**A.** 20 to 100 nM
